Results as given in patent publication US10662203B2, “Pyrido[2,3-b]indole compounds for the treatment and prophylaxis of bacterial infection” (Hoffmann-La Roche Inc., priority 2017, dated 2020).
Read-outs that look alike come from different tables or passages of the source.

How the values were obtained:
Assay type in all cases: cell-based
[1] = test system: A. baumannii (ATCC17978); test: 50% growth inhibitory concentration (IC50) determination assay; details: Iso-Sensitest broth, 0.098 = detection limit
Method in brief: (§1)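 Read-out is optical density at λ=600 nm, taken every 20 minutes across a 16 h time course. Bacteria at ~5×10^5 CFU/mL in Iso-Sensitest broth are exposed to two-fold dilutions of compound (50 to 0.097 μM final) at 35±2° C.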

[2] = test system: S. aureus (ATCC29213); test: as above; details: Iso-Sensitest broth, 0.098 = detection limit
Method in brief: as §1

[3] = test system: K. pneumoniae (ATCC10031); test: as above; details: Iso-Sensitest broth, 0.098 = detection limit
Method in brief: as §1

[4] = Cytotoxicity assay (HepG2, CellTiter-Blue cell viability); details: human
Experimental: The cytotoxicity of compounds of present invention was assessed by HepG2 assay. HepG2 cells (ATCC HB-8065™) were seeded into 96-well plates (1.2×10^4 cells per well) and treated with compounds for 3 days, cell viability was measured at day 3 post compound treatment using the CellTiter-Blue® Cell Viability Assay (Promega, Cat. No. G8082). 20 μL of Cell titer blue buffer were added to each well of the cells, which were incubated for 3 hours at 37° C., and the fluorescence value was measured by a plate reader (Molecular Device SpectraMax M2). The CC50 value of each compound is plotted with GraphPad Prism using four parameter logistic equation.

[5] = Acinetobacter baumannii, ATCC17978, A. baumannii ATCC17978
[6] = HepG2 cells, 3 days treatment, "*": the detection limit, read-out: CC50

IC50 [1, 5] | IC50 ([2]; Staphylococcus aureus) | IC50 ([3]; Klebsiella pneumoniae) | Compound | CC50 at 3 days [4, 6] | IC50 ([1]; A. baumannii ATCC17978) | IC50 [2] | IC50 [3] | CC50 at 3 days [4]
0.111 µM | < 0.098 µM | < 0.098 µM | CNc1cc(F)c(F)c2c1[nH]c1ncc(-c3cnc4c(c3)c(=O)c(C(=O)O)cn4NC)c(N3CC[C@H]4CN(C)C4C3)c12 (some centres unmarked) [Example 1.214] | 40800 nM | – | – | – | –
0.744 µM | 8.84 µM | 0.107 µM | CNc1cc(F)c(F)c2c1[nH]c1ncc(-c3cnc4c(c3)c(=O)c(C(=O)O)cn4C3CCNC3)c(N3CCSCC3)c12 (centres unmarked) [Example 1.98] | > 100000 nM | – | – | – | –
0.658 µM | < 0.098 µM | < 0.098 µM | CNc1cc(F)cc2c1[nH]c1ncc(-c3cnc4c(c3)c(=O)c(C(=O)O)cn4C)c(N3CCC(C)(O)C3)c12 (centres unmarked) [Example 1.59] | 27900 nM | – | – | – | –
– | – | – | CNc1cc(F)c(F)c2c1[nH]c1ncc(-c3cnc4c(c3)c(=O)c(C(=O)O)cn4C3CCNC3)c(N(C)C)c12 (centres unmarked) [Example 1.150] | > 100000 nM | 0.273 µM | < 0.098 µM | < 0.098 µM | –
0.132 µM | < 0.098 µM | < 0.098 µM | CNc1cc(F)c(F)c2c1[nH]c1ncc(-c3cnc4c(c3)c(=O)c(C(=O)O)cn4C)c(N3CCCC(CN(C)C)C3)c12 (centres unmarked) [Example 1.80] | 27500 nM | – | – | – | –
0.519 µM | < 0.098 µM | < 0.098 µM | CNc1cc(F)c(F)c2c1[nH]c1ncc(-c3cnc4c(c3)c(=O)c(C(=O)O)cn4C)c(N3C[C@H](C)[C@@H](O)C3)c12 [Example 1.83] | 26400 nM | – | – | – | –
0.311 µM | < 0.098 µM | < 0.098 µM | CNc1cc(F)c(F)c2c1[nH]c1ncc(-c3cnc4c(c3)c(=O)c(C(=O)O)cn4C)c(N3CC[C@@H](O)C3)c12 [Example 1.151] | 37200 nM | – | – | – | –
0.602 µM | < 0.098 µM | – | CNc1cc(F)c(F)c2c1[nH]c1ncc(-c3cnc4c(c3)c(=O)c(C(=O)O)cn4C)c(N3CCC(N)(C(F)(F)F)C3)c12 (centres unmarked) [Example 1.27] | 28200 nM | – | – | – | –
0.847 µM | – | – | CNc1cc(F)c(F)c2c1[nH]c1ncc(-c3cnc4c(c3)c(=O)c(C(=O)O)cn4CC3CCCN3)c(N3CCOCC3)c12 (centres unmarked) [Example 1.11] | > 100000 nM | – | – | – | –
0.569 µM | < 0.098 µM | < 0.098 µM | CNCCn1cc(C(=O)O)c(=O)c2cc(-c3cnc4[nH]c5c(NC)cc(F)c(F)c5c4c3N(C)C)cnc21 [Example 1.26] | 32500 nM | – | – | – | –
0.542 µM | < 0.098 µM | < 0.098 µM | CNc1cc(F)c(F)c2c1[nH]c1ncc(-c3cnc4c(c3)c(=O)c(C(=O)O)cn4C)c(N3CCC4(CCN(C)C4)CC3)c12 [Example 1.231] | 37200 nM | – | – | – | –
0.461 µM | < 0.098 µM | < 0.098 µM | CNc1cc(F)cc2c1[nH]c1ncc(-c3cnc4c(c3)c(=O)c(C(=O)O)cn4C)c(N3CCC(CO)C3)c12 (centres unmarked) [Example 1.54] | > 100000 nM | – | – | – | –
– | – | – | CNc1cc(F)c(F)c2c1[nH]c1ncc(-c3cnc4c(c3)c(=O)c(C(=O)O)cn4C3CCNC3)c(N3CCO[C@@H](C)C3)c12 (some centres unmarked) [Example 1.251] | > 100000 nM | – | – | – | –
– | – | – | CNc1cc(F)cc2c1[nH]c1ncc(-c3cnc4c(c3)c(=O)c(C(=O)O)cn4C(C)(CO)CO)c(N3CCOCC3)c12 [Example 1.44] | > 100000 nM | – | – | – | –
– | – | – | CCNc1cc(F)cc2c1[nH]c1ncc(-c3cnc4c(c3)c(=O)c(C(=O)O)cn4C3CCNC3)c(N3CCOCC3)c12 (centres unmarked) [Example 1.34] | > 100000 nM | – | – | – | –
– | – | – | CNc1cc(F)cc2c1[nH]c1ncc(-c3cnc4c(c3)c(=O)c(C(=O)O)cn4C)c(N3CCC(O)C3)c12 (centres unmarked) [Example 1.47] | > 100000 nM | – | – | – | –
– | – | – | CCn1cc(C(=O)O)c(=O)c2cc(-c3cnc4[nH]c5c(NC)cc(F)c(F)c5c4c3N3CC4CC(C3)O4)cnc21 [Example 1.128] | – | – | – | – | 27100 nM
0.643 µM | < 0.098 µM | – | CNc1cc(F)cc2c1[nH]c1ncc(-c3cnc4c(c3)c(=O)c(C(=O)O)cn4Cc3cnccn3)c(N3CCOCC3)c12 [Example 1.58] | > 100000 nM | – | – | – | –
